Publication PMC8831383, “Visualization-Based Discovery of Vanin-1 Inhibitors for Colitis” (Frontiers in Chemistry, 2022)

What was measured:
vanin-1 = test system: vanin-1; design: method as in Jansen et al., 2013; settings: ref Jansen et al., 2013; cited from earlier work
[1] = biological target: T1, human recombinant VNN1 enzyme (Homo sapiens, UniProt O95497); assay: Inhibitory activity against human recombinant VNN1 enzyme in vitro with fluorescent probe PA-AFC; type: biochemical; settings: human recombinant VNN1 30 ng/ml, probe PA-AFC 20 μM, 37°C, 30 min + 30 min
T1 sequence (O95497 22-513): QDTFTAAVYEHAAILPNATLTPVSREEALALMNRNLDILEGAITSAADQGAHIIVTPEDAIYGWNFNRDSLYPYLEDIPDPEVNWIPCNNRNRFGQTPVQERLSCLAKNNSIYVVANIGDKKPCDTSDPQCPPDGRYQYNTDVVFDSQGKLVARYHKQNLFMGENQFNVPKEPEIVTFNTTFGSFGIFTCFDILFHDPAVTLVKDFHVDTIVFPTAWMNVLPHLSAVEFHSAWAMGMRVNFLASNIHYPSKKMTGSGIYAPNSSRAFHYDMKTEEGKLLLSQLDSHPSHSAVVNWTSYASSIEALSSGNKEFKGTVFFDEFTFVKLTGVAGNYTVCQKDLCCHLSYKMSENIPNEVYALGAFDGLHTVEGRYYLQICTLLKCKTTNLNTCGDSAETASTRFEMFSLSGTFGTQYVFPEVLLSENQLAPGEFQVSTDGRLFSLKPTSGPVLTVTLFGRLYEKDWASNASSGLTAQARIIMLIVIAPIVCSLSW
Procedure: This study was used human recombinant VNN1 enzyme and fluorescent probe PA-AFC to determine the IC50 value of inhibitors.
Dilute the lead compound and each inhibitor to be tested with buffer to, for example, 400, 200, 100, 50, 25, 12.50, 6.25, 3.13, and 1.56 μM, 781 nM, 391 nM The gradient concentration of the solution. Prepare the human recombinant VNN1 enzyme solution at a concentration of 30 ng/ml. Prepare the fluorescent probe PA-AFC solution with a concentration of 20 μM.
Add 50 μl of gradient concentration of the inhibitor to be tested to each well of the black 96-well plate, and then continue to add 50 μl of the newly prepared human recombinant VNN1 enzyme solution to each well. Among them, the control group and the blank group were replaced with the same volume of buffer. After the solution is mixed, place the black 96-well plate on a shaker at 37°C for 30 min. Continue to add 100 μl of the prepared fluorescent probe solution to each well of the black 96-well plate. After mixing, place the black 96-well plate on a shaker at 37°C and incubate for 30 min. Take the black 96-well plate out of the shaker and place it in a POLARstar Omega microplate reader. Use a 420 nm filter for the excitation light and a 510 nm filter for the emission light. Record the fluorescence intensity data at 510 nm. Through GraphpadPrism mapping, the IC50 value of each inhibitor to be tested was obtained.

Vanin-1 enzyme [2] = biological target: T2, Vanin-1 enzyme (Homo sapiens, UniProt O95497); assay: Inhibition of Vanin-1 enzyme at the cellular level in ES-2-Fluc cells with bioluminescent probe PA-AL; type: cell-based; settings: 30 min incubation with inhibitor, probe PA-AL 20 μM
T2 construct: endogenous in cells; host or cells: ES-2-Fluc (human ovarian cancer cells expressing firefly luciferase)
T2 sequence (O95497 22-513): T1 sequence (O95497 22-513)
Procedure: This study explores the inhibition of Vanin-1 enzyme at the cellular level using firefly luciferase labeled human ovarian cancer cells (ES-2-Fluc) and the bioluminescent probe PA-AL.
Take a black 96-well plate with a transparent bottom, dilute the cells to a cell suspension with a concentration of 4 × 10^5 cells/ml, add 100 μl to each well to reach about 40,000 cells in each well, and incubate at 37°C for 12 h. Dilute the lead compound and each inhibitor to be tested to the final concentration of 200, 100, 50, 25, 12.50, 6.25, 3.13, 1.56, and 0.78 μM, and add 100 μl to each well. After mixing, transfer to a shaker at 37°C and incubate the cells with the inhibitor for 30 min. Prepare bioluminescent probe PA-AL solution with a concentration of 20 μM. Immediately after adding, put it into in vivo imaging for bioluminescence imaging. The bioluminescence intensity value of each hole was analyzed by the software of the living body imager, and the exposure time was 1 min. Graphpad Prism software is used to draw the IC50 value of each inhibitor to be tested.

vanin-1 enzyme [3] = biological target: T3, vanin-1 enzyme (Mus musculus, UniProt Q9Z0K8); assay: Inhibition of vanin-1 in transgenic mice in vivo, bioluminescence imaging with probe PA-AL; design: species or system FVB-luc + mice; settings: gavage, lead compound 25 mg/kg, compound a 50 mg/kg, PA-AL i.p. 1.5 h later
T3 construct: from tissue; host or cells: whole living FVB-luc+ transgenic mice
T3 sequence (Q9Z0K8 24-512): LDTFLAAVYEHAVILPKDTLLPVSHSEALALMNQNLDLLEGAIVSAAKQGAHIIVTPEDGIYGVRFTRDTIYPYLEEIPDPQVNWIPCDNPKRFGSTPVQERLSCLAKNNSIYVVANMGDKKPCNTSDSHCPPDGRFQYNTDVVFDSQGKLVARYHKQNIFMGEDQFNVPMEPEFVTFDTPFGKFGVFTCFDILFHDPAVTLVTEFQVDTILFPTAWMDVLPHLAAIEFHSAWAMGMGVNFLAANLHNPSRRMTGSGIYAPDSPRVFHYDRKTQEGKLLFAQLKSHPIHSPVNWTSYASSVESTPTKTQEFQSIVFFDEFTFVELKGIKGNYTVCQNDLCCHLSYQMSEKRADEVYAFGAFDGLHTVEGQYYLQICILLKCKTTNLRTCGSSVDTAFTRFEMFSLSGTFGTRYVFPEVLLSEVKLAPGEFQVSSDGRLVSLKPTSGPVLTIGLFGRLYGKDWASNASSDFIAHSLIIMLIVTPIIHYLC
Procedure: We divided FVB-luc + mice into three groups: • (1) Control group: gavage lead compound, the dose is 25 mg/kg, the gavage volume is 200 μl; • (2) Experimental group: gavage compound a, the dose is 50 mg/kg, the gavage volume is 200 μl; • (3) Blank group: Administer normal saline, the volume of intragastric administration is 200 μl.
After intragastric administration, mice were fed routinely for 1.5 h, and then mice in each group were anesthetized with 4% chloral hydrate solution and injected intraperitoneally with physiological saline solution of bioluminescent probe PA-AL (1 mM, 200 μl). In 55 min, the bioluminescence imaging of the whole body of each group of mice was measured every 5 min, and then the bioluminescence intensity was obtained by analyzing the images with the software of the in vivo imager.

[4] = test system: TNBS-induced mouse colitis model; assay: TNBS-induced mouse colitis model; type: in vivo, C57BL/6J mice; settings: TNBS colitis mice; lead compound 25 mg/kg, compound a 50 mg/kg once a day, 8 days; TNBS model group 10.0 ± 1.63
Procedure: The dose of TNBS used in this experiment is 2.0 mg/50% alcohol enema, each with a volume of 100 μl. The preparation method is 40 μl of 5% TNBS (w/v) aqueous solution, 50 μl of absolute ethanol, and 10 μl of distilled water. well mixed.
The study bred C57BL/6J mice adaptively with ordinary diet for 1 week, in an ordinary clean environment, normal light and free drinking water. The mice were randomly divided into 3 groups and numbered, fasted without water for 24 h before modeling. After weighing the mouse, use isoflurane anesthesia, insert a rubber hose with a diameter of about 0.2–0.3 cm into the mouse 3.5 cm from the anus, and slowly push 100 μl of the 2.0 mg TNBS/50% alcohol mixture solution through the hose Enter the colon, slowly pull out the plastic tube after the administration, pinch the anus with your hand, and invert it for 1 min, so that the model agent can fully penetrate the intestinal cavity of the mouse. Then put them back into the breeding cage to keep lying down, wait for the mice to wake up naturally, and create a model together. The mice in the control group were given 200 μl of lead compound solution (25 mg/kg) once a day, the mice in the experimental group were given 200 μl of compound 1c solution (50 mg/kg) once a day, and the mice in the model group were given physiological salt once a day 200 μl of aqueous solution. […]

Row | SMILES | melting point | IC50 [1] | IC50 (Vanin-1 enzyme [2]) | bioluminescence intensity at the peak relative to the blank group (vanin-1 enzyme [3]; 30 min after probe injection) | bioluminescence intensity of transgenic mice at the peak (vanin-1 enzyme [3]; about 30 min after probe injection) | IC50 (vanin-1) | DAI score [4]
1 | CC(C)(CO)C(O)C(=O)NCCC(=O)Nc1ccc2c(C(F)(F)F)cc(=O)oc2c1 (centres unmarked) | 92.4 to 93.6 °C |  |  |  |  |  | 
2 | CC(C)(CO)[C@@H](O)C(=O)NCCC(=O)Cc1ccccc1 [RR6] |  |  |  |  |  | 0.54 µM | 
3 | O=C(c1ccc(NCc2cnccn2)cc1)N1CCC2(CCOCC2)C1 [c, (4-((pyrazin-2-ylmethyl)amino)phenyl)(8-oxa-2-azaspiro[4.5]decan-2-yl)methanone] | 173.4 to 173.8 °C | 30.33 ± 0.11 µM | 16.5 ± 1.92 µM |  |  |  | 
4 | O=C(c1ccc(NCc2cccnc2)cn1)N1CCC2(CCOCC2)C1 [e, (5-((pyridin-3-ylmethyl)amino)pyridin-2-yl)(8-oxa-2-azaspiro[4.5]decan-2-yl)methanone] | 176.5 to 177.2 °C | 43.7 ± 1.07 µM | 35.8 ± 2.15 µM |  |  |  | 
5 | O=C(c1ccc(NCc2cccnc2)cn1)N1CC2(CCOCC2)C1 [f, (5-((pyridin-3-ylmethyl)amino)pyridin-2-yl)(7-oxa-2-azaspiro[3.5]nonan-2-yl)methanone] | 202 to 202.3 °C | 46.2 ± 1.27 µM | 22 ± 2.66 µM |  |  |  | 
6 | O=C(c1ccc(NCc2cnccn2)cn1)N1CC2(CCOCC2)C1 [h, (5-((pyrazin-2-ylmethyl)amino)pyridin-2-yl)(7-oxa-2-azaspiro[3.5]nonan-2-yl)methanone] | 104.6 to 105 °C | 84.6 ± 2.5 µM | 59.6 ± 5.27 µM |  |  |  | 
7 | COc1cc(C(=O)N2CCC3(CCOCC3)C2)ccc1NCc1cccnc1 [i, (3-methoxy-4-((pyridin-3-ylmethyl)amino)phenyl)(8-oxa-2-azaspiro[4.5]decan-2-yl)methanone] | 128.2 to 129.6 °C | 115 ± 13 µM | 93.7 ± 8.08 µM |  |  |  | 

Continued by falling IC50 [1], values first:

Row | melting point | IC50 [1] | IC50 (Vanin-1 enzyme [2]) | bioluminescence intensity at the peak relative to the blank group (vanin-1 enzyme [3]; 30 min after probe injection) | bioluminescence intensity of transgenic mice at the peak (vanin-1 enzyme [3]; about 30 min after probe injection) | SMILES | IC50 (vanin-1) | DAI score [4]
8 | 136.4 to 136.9 °C | 138.3 ± 0.68 µM | 80.6 ± 6.21 µM |  |  | COc1cc(C(=O)N2CC3(CCOCC3)C2)ccc1NCc1cccnc1 [j, (3-methoxy-4-((pyridin-3-ylmethyl)amino)phenyl)(7-oxa-2-azaspiro[3.5]nonan-2-yl)methanone] |  | 
9 | 123.6 to 124.1 °C | 51.5 ± 1.65 µM | 39.8 ± 0.91 µM |  |  | O=C(c1ccc(NCc2cnccn2)cn1)N1CCC2(CCOCC2)C1 [g, (5-((pyrazin-2-ylmethyl)amino)pyridin-2-yl)(8-oxa-2-azaspiro[4.5]decan-2-yl)methanone] |  | 
10 | 191.6 to 191.9 °C | 28.5 ± 0.35 µM | 15.3 ± 0.75 µM |  |  | O=C(c1ccc(NCc2cnccn2)cc1)N1CC2(CCOCC2)C1 [d, (4-((pyrazin-2-ylmethyl)amino)phenyl)(7-oxa-2-azaspiro[3.5]nonan-2-yl)methanone] |  | 
11 | 126.1 to 126.5 °C | 26.2 ± 0.56 µM | 12.3 ± 1.28 µM |  |  | O=C(c1ccc(NCc2cccnc2)cc1)N1CC2(CCOCC2)C1 [b, (4-((pyridin-3-ylmethyl)amino)phenyl)(7-oxa-2-azaspiro[3.5]nonan-2-yl)methanone] |  | 
12 | 113.2 to 114.7 °C | 20.2 ± 1.32 µM | 9.08 ± 0.57 µM | about one-half | significantly reduced | O=C(c1ccc(NCc2cccnc2)cc1)N1CCC2(CCOCC2)C1 [a, (4-((pyridin-3-ylmethyl)amino)phenyl)(8-oxa-2-azaspiro[4.5]decan-2-yl)methanone] |  | 6.7 ± 0.95
